# From patent US20140171431A1, “AZOLE HETEROCYCLIC COMPOUND, PREPARATION METHOD, PHARMACEUTICAL COMPOSITION AND USE” (priority 2011, published 2014)
# Like-named read-outs stand apart in the source and are kept apart here.
# Tests used:
# [1] = target: T1, Lp-PLA2 in human serum (Homo sapiens, UniProt Q13093); test: In vitro inhibitory activity towards the enzyme Lp-PLA2 in human serum, [3H]PAF substrate; type: biochemical
# T1 construct: from tissue
# T1 sequence (Q13093 22-441): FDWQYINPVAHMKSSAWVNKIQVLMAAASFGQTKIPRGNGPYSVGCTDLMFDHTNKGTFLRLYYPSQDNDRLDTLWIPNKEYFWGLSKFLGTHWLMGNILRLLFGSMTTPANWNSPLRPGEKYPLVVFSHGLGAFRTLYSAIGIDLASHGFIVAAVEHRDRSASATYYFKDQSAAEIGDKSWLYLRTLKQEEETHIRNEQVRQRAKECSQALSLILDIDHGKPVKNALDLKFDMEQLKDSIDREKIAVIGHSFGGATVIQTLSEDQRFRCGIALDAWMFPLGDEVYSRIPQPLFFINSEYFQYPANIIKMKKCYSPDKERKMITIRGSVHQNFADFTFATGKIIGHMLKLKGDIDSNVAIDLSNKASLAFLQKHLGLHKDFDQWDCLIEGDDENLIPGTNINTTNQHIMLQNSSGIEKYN
# Procedure: The activities of compounds were measured using [^3H] labeled platelet activating factor ([^3H]PAF, Perkinelmer, Lot NET910) as the substrate. The reaction was carried out in a system containing 50 mmol/l HEPES and 150 mmol/l NaCl (pH 7.4) in a total volume of 200 μl. First, 10 μL human plasma and 10 μl DMSO solution of the test compound were added to the system and preincubated for 10 min at 37° C. Then 20 nM [^3H]PAF was added as listed in table 1 to start the reaction and incubated for a further 10 min at 37° C. After that, 600 μl of CHCl3/MeOH (2:1) was added and the resulting mixture was mixed with vortex. After settled for a while, the mixture was centrifugated at 12000×g for 15 min. The supernatant was transferred to a new tube and 200 μl of CHCl3 was added and mixed by vortexing. The mixture was settled or centrifugated for 2 min. A 100 μl portion of the supernatant was then collected for radioactivity intensity measurement.
# [2] = target: T2, Lp-PLA2 in rabbit serum (Oryctolagus cuniculus, UniProt G1SE06); test: In vitro inhibitory activity towards the enzyme Lp-PLA2 in rabbit serum, [3H]PAF substrate; type: biochemical
# T2 construct: from tissue; host or cells: rabbit serum
# T2 sequence (G1SE06 22-423): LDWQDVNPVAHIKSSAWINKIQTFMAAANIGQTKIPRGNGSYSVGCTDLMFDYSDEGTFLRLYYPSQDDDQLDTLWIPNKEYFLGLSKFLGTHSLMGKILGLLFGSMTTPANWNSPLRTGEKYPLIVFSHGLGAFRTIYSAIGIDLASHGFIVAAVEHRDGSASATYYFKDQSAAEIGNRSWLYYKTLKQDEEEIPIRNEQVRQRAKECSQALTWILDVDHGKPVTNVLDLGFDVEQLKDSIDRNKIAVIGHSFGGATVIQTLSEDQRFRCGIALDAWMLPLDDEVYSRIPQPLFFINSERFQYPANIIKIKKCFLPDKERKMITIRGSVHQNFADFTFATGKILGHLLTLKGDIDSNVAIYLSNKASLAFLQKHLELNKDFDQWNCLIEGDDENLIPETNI
# [3] = 10 nM, human serum, read-out: inhibition, %
# [4] = 10 nM, read-out: inhibitory rate towards the human serum derived Lp-PLA2 enzyme
# [5] = 100 nM, rabbit serum, read-out: inhibition, %
# [6] = 100 nM, read-out: inhibitory rate towards the rabbit serum derived Lp-PLA2 enzyme
SMILES,"inhibition at 0.01 µM [1, 3]","inhibition at 0.01 µM [1, 4]","inhibition at 0.1 µM ([1]; 100 nM, human serum)","inhibition at 0.1 µM [2, 5]","inhibition at 0.1 µM [2, 6]","inhibition, % ([1]; 10 nM, human serum, 0.01 µM)","inhibition, % ([1]; 100 nM, human serum, 0.1 µM)","inhibition, % ([2]; 100 nM, rabbit serum, 0.1 µM)",inhibition at 1 µM ([2]; rabbit serum)
"COC(=O)CN(C)Cc1nnc(Cn2c(SCc3ccc(F)cc3)nc(=O)c3c2CCC3)n1Cc1ccc(-c2ccc(C(F)(F)F)cc2)cc1 [Example 62, methyl 2-(((5-((2-(4-fluorobenzylthio)-4-oxo-4,5,6,7-tetrahydro-1H-cyclopenta[d]pyrimidin-1-yl)methyl)-4-((4′-(trifluoromethyl)biphenyl-4-yl)methyl)-4H-1,2,4-triazol-3-yl)methyl)(methyl)amino)acetate]",83%,,96%,81.9%,,76%,94%,73.8%,
"CCN(CC)Cc1cnc(Cn2c(SCc3ccc(F)cc3)nc(=O)c3c2CCC3)n1Cc1ccc(-c2ccc(C(F)(F)F)cc2)cc1 [Example 42, 1-((5-((diethylamino)methyl)-1-((4′-(trifluoromethyl)biphenyl-4-yl)methyl)-1H-imidazol-2-yl)methyl)-2-(4-fluorobenzylthio)-6,7-dihydro-1H-cyclopenta[d]pyrimidin-4(5H)-one]",75%,,92%,88.3%,,,,,97.7%
"C[N+](C)(Cc1ccc(F)cc1)Cc1cnc(Cn2c(SCc3ccc(F)cc3)nc(=O)c3c2CCC3)n1Cc1ccc(-c2ccc(C(F)(F)F)cc2)cc1 [Example 47, N-(4-fluorobenzyl)-1-(2-((2-(4-fluorobenzylthio)-4-oxo-4,5,6,7-tetrahydro-1H-cyclopenta[d]pyrimidin-1-yl)methyl)-1-((4′-(trifluoromethyl)biphenyl-4-yl)methyl)-1H-imidazol-5-yl)-N,N-dimethylmethanaminium bromide]",93%,> 80%,99%,96.9%,> 90%,,,,98.6%
"CCCc1nnc(Cn2c(SCc3ccc(F)cc3)nc(=O)c3c2CCC3)n1Cc1ccc(-c2ccc(C(F)(F)F)cc2)cc1 [Example 66, 2-(4-fluorobenzylthio)-1-((5-propyl-4-((4′-(trifluoromethyl)biphenyl-4-yl)methyl)-4H-1,2,4-triazol-3-yl)methyl)-6,7-dihydro-1H-cyclopenta[d]pyrimidin-4(5H)-one]",88%,,98%,88%,,,,,
"Cc1nnc(Cn2cc(Cc3cnn(C)c3)c(=O)nc2SCc2ccc(F)cc2)n1Cc1ccc(-c2ccc(C(F)(F)F)cc2)cc1 [Example 65, 2-(4-fluorobenzylthio)-5-((1-methyl-1H-pyrazol-4-yl)methyl)-1-((5-methyl-4-((4′-(trifluoromethyl)biphenyl-4-yl)methyl)-4H-1,2,4-triazol-3-yl)methyl)pyrimidin-4(1H)-one]",82%,,96%,60%,,,,,
"COC(=O)C(C)(C)NCc1nnc(Cn2c(SCc3ccc(F)cc3)nc(=O)c3c2CCC3)n1Cc1ccc(-c2ccc(C(F)(F)F)cc2)cc1 [Example 85, methyl-2-((5-((2-(4-fluorobenzylthio)-4-oxo-4,5,6,7-tetrahydro-1H-cyclopenta[d]pyrimidin-1-yl)methyl)-4-((4′-(trifluoromethyl)biphenyl-4-yl)methyl)-4H-1,2,4-triazol-3-yl)methylamino)-2-methylpropanoate]",59%,,91%,77%,,,,,
"O=c1nc(SCc2ccc(F)cc2)n(Cc2ncc(CN3CCN(Cc4ccccc4)CC3)n2Cc2ccc(-c3ccc(C(F)(F)F)cc3)cc2)c2c1CCC2 [Example 45, 1-((5-((4-benzylpiperazin-1-yl)methyl)-1-((4′-(trifluoromethyl)biphenyl-4-yl)methyl)-1H-imidazol-2-yl)methyl)-2-(4-fluorobenzylthio)-6,7-dihydro-1H-cyclopenta[d]pyrimidin-4(5H)-one]",56%,,90%,87%,,,,,
"CN(C)C(=O)c1cnc(Cn2c(SCc3ccc(F)cc3)nc(=O)c3c2CCC3)n1Cc1ccc(-c2ccc(C(F)(F)F)cc2)cc1 [Example 52, 2-((2-(4-fluorobenzylthio)-4-oxo-4,5,6,7-tetrahydro-1H-cyclopenta[d]pyrimidin-1-yl)methyl)-N,N-dimethyl-1-((4′-(trifluoromethyl)biphenyl-4-yl)methyl)-1H-imid azole-5-carboxamide]",97%,> 80%,99%,90%,> 90%,,,,

# Second part, the compound after the results:
"inhibition at 0.01 µM [1, 3]","inhibition at 0.01 µM [1, 4]","inhibition at 0.1 µM ([1]; 100 nM, human serum)","inhibition at 0.1 µM [2, 5]","inhibition at 0.1 µM [2, 6]","inhibition, % ([1]; 10 nM, human serum, 0.01 µM)","inhibition, % ([1]; 100 nM, human serum, 0.1 µM)","inhibition, % ([2]; 100 nM, rabbit serum, 0.1 µM)",inhibition at 1 µM ([2]; rabbit serum),SMILES
82%,> 80%,96%,90%,> 90%,,,,,"CCN1CCN(Cc2nnc(Cn3c(SCc4ccc(F)cc4)nc(=O)c4c3CCC4)n2Cc2ccc(-c3ccc(C(F)(F)F)cc3)cc2)CC1 [Example 86, 1-((5-((4-ethylpiperazin-1-yl)methyl)-4-((4′-(trifluoromethyl)biphenyl-4-yl)methyl)-4H-1,2,4-triazol-3-yl)methyl)-2-(4-fluorobenzylthio)-6,7-dihydro-1H-cyclopenta[d]pyrimidin-4(5H)-one]"
71%,,98%,82%,,,,,,"CN(C)C1CCN(Cc2nnc(Cn3c(SCc4ccc(F)cc4)nc(=O)c4c3CCC4)n2Cc2ccc(-c3ccc(C(F)(F)F)cc3)cc2)CC1 [Example 103, 1-((5-((4-(dimethylamino)piperidin-1-yl)methyl)-4-((4′-(trifluoromethyl)biphenyl-4-yl)methyl)-4H-1,2,4-triazol-3-yl)methyl)-2-(4-fluorobenzylthio)-6,7-dihydro-1-cyclopenta[d]pyrimidin-4(5H)-one]"
56%,,87%,63%,,,,,,"O=C1NCCN1Cc1nnc(Cn2c(SCc3ccc(F)cc3)nc(=O)c3c2CCC3)n1Cc1ccc(-c2ccc(C(F)(F)F)cc2)cc1 [Example 112, 2-(4-fluorobenzylthio)-1-((5-((2-oxoimidazolidin-1-yl)methyl)-4-((4′-(trifluoromethyl)biphenyl-4-yl)methyl)-4H-1,2,4-triazol-3-yl)methyl)-6,7-dihydro-1H-cyclopenta[d]pyrimidin-4(5H)-one]"
67%,,92%,80%,,,,,,"O=c1nc(SCc2ccc(F)cc2)n(Cc2nnc(/C=N/N3CCCCC3)n2Cc2ccc(-c3ccc(C(F)(F)F)cc3)cc2)c2c1CCC2 [Example 117, (E)-2-(4-fluorobenzylthio)-1-((5-((piperidin-1-ylimino)methyl)-4-((4′-(trifluoromethyl)biphenyl-4-yl)methyl)-4H-1,2,4-triazol-3-yl)methyl)-6,7-dihydro-1H-cyclopenta[d]pyrimidin-4(5H)-one]"
88%,> 80%,100%,94%,> 90%,,,,,"CN(C)/N=C/c1nnc(Cn2c(SCc3ccc(F)cc3)nc(=O)c3c2CCC3)n1Cc1ccc(-c2ccc(C(F)(F)F)cc2)cc1 [Example 116, (E)-1-((5-((2,2-dimethylhydrazono)methyl)-4-((4′-(trifluoromethyl)biphenyl-4-yl)methyl)-4H-1,2,4-triazol-3-yl)methyl)-2-(4-fluorobenzylthio)-6,7-dihydro-1H-cyclopenta[d]pyrimidin-4(5H)-one]"
59%,,91%,67%,,,,,,"COC(=O)C(C)(C)N1CCN(Cc2nnc(Cn3c(SCc4ccc(F)cc4)nc(=O)c4c3CCC4)n2Cc2ccc(-c3ccc(C(F)(F)F)cc3)cc2)CC1 [Example 88, methyl-2-(4-((5-((2-(4-fluorobenzylthio)-4-oxo-4,5,6,7-tetrahydro-1H-cyclopenta[d]pyrimidin-1-yl)methyl)-4-((4′-(trifluoromethyl)biphenyl-4-yl)methyl)-4H-1,2,4-triazol-3-yl)methyl)piperazin-1-yl)-2-methylpropanoate]"
